Experimental findings from EP4342530A1, “SORTILIN MODULATORS” (Insusense ApS, priority 2022, dated 2024) are described below.

Structures are written as SMILES.

The term IC50 denotes the concentration needed to halve the response being measured.

The experiment concerns the target T1, h-Sortilin (Homo sapiens, UniProt Q99523).
T1 sequence (Q99523 78-831): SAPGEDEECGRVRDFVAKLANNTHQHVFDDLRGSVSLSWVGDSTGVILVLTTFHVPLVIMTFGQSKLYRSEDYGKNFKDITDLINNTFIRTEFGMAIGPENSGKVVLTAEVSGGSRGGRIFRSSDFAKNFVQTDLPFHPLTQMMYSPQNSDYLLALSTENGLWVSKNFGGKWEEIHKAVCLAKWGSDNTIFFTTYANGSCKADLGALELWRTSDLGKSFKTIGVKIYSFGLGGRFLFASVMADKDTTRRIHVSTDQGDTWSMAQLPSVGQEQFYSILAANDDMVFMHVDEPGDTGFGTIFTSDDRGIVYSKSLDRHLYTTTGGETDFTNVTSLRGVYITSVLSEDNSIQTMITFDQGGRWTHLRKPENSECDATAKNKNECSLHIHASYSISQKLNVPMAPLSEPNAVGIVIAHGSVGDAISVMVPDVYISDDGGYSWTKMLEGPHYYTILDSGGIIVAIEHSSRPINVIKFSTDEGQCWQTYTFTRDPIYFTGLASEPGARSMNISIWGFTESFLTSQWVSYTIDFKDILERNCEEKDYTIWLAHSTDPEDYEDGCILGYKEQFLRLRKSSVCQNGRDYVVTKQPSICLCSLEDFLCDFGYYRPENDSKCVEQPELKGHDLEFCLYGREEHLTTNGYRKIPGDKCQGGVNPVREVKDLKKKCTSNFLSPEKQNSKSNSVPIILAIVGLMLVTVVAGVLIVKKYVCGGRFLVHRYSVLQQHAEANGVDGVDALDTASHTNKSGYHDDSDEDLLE
The experiment can be described thus: Neurotensin scintillation proximity assay (displacement of [3H]-neurotensin binding). The conditions noted are these: 150 nM 6his-Sortilin, 5 nM [3H]-Neurotensin; average of at least 2 determinations; read-out: IC50 [3H]Neurotensin SPA. The procedure, abridged:
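Compounds pre-incubated 30 min at room temperature with 150 nM 6His-sortilin in HEPES pH 7.4 buffer with NaCl, CaCl2, BSA and Tween-20, then 5 nM [3H]-neurotensin and Ni chelate SPA beads added; read after 6 h. IC50 from 8-point variable-slope fits, mean of at least 2 determinations.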
`C[C@@H](N[C@@H](CCC(C)(C)C)C(=O)O)c1ccc2c(c1)CCCO2` [Example 52]: the IC50 is 260 nM.

With `CC(C)(C)CC[C@H](NCc1ccc2c(c1)COCC2)C(=O)O` [Example 3, (S)-2-((isochroman-7-ylmethyl)amino)-5,5-dimethylhexanoic acid], the IC50 came to 230 nM. For `C[C@H](N[C@@H](CCC(C)(C)C)C(=O)O)c1ccc2c(c1)CCCO2` [Example 50] the value was 230 nM. To `C[C@@H](N[C@@H](CCC(C)(C)C)C(=O)O)c1ccc2c(c1)OCCC2` [Example 9] belongs 210 nM.
